Measured values published in PMC8659243, “Design, Synthesis and Tumour-Selective Toxicity of Novel 1-[3-{3,5-Bis(benzylidene)-4-oxo-1-piperidino}-3-oxopropyl]-4-piperidone Oximes and Related Quaternary Ammonium Salts” (Molecules, 2021).
Like-named read-outs stand apart in the source and are kept apart here.

Tests used:
[1] = tested on: COLO 205, HCC2998, HCT-15, KM12 and SW-620 cells; settings: read-out: average IC50 against COLO 205, HCC2998, HCT-15, KM12 and SW-620 cells; cited from earlier work
[2] = tested on: Ca9-22 cells; assay: Cytotoxicity against Ca9-22 cells, MTT method, 48 h; assay type: cell-based, human; settings: for CC50: Homo sapiens, read-out: CC50 Ca9-22; for SI Ca9-22: average CC50 towards HGF, HPLF, HPC divided by CC50 against Ca9-22
Experimental: (§1) A literature procedure was followed when the compounds in series 3 and 4 were evaluated against three human oral squamous cell carcinoma cell lines Ca9-22 (RCB-1976), HSC-2 (RCB1945), HSC-4 (RCB1902) (purchased from RIKEN Cell Bank, Tukuba, Japan) and three human normal oral cells, gingival fibroblast (HGF), periodontal ligament fibroblast (HPLF) and pulp cells (HPC) (established according to the guideline of the intramural ethic committee, A0808) except the duration of incubation was increased from 24 h to 48 h. In brief, various concentrations of the compounds were added to the DMEM media, which was supplemented by 10% heat-inactivated fetal bovine serum. Incubation was undertaken at 37 °C. At the completion of the experiment, cell viability was determined by the MTT method.

[3] = tested on: Ca9-22, HSC-2 and HSC-4 cells; assay: Average over Ca9-22, HSC-2 and HSC-4 neoplastic cells; assay type: cell-based, human; settings: for CC50: Homo sapiens, read-out: Average CC50; for Average SI: average of SI for Ca9-22, HSC-2 and HSC-4
Experimental: In order to assess whether the compounds in series 3 and 4 are more toxic to neoplasms than non-malignant cells, selective index (SI) figures were calculated. In the in vivo situation, a tumour is surrounded by a number of non-malignant cells.
In order to identify the most promising lead compounds in terms of both cytotoxic potencies and favourable SI values, potency–selectivity expression (PSE) values were computed. […] Outstanding results may be noted for four compounds that have PSE values in excess of 100,000 namely 3d, 4c–e. […] However, the relative SI/PSE distribution patterns between series 3 and 4 (from a to h) are nearly superimposable with each other (Figure 3). […] It has been reported that 3,5-bis(3-iodo-5-methoxy-4-propoxybenzylidene)-N-acetylpiperidin-4-one inhibited tubulin and destabilization of microtubules, while 3,5-bis(3,4,5-trimethoxybenzylidene)-N-benzoylpiperidin-4-one destabilizes the microtubules. Thus, it remained to investigate whether compound 4d acts as an inhibitor of the microtubule.
as §1

[4] = Cytotoxicity against non-malignant HGF cells, MTT method, 48 h; assay type: cell-based; settings: human, gingival fibroblasts (HGF)
Experimental: as §1

[5] = tested on: CEM T-lymphoblastic leukemia cells; assay: Cytotoxicity against CEM cells, MTT method, 24 h; assay type: cell-based; settings: Homo sapiens, CCRF-CEM, concentration required to inhibit cell growth by 50%
Experimental: The method used for the evaluation of various compounds against human CEM cells has been reported previously. In brief, cells were grown in RPMI-1640 medium supplemented with 10% heat-inactivated fetal bovine serum. Different concentrations of compounds were added to the media, and after 24 h incubation, cytotoxicity was measured by the MTT method.

[6] = tested on: HSC-2 cells; assay: Cytotoxicity against HSC-2 cells, MTT method, 48 h; assay type: cell-based, human; settings: for CC50: Homo sapiens, HSC-2, concentration required to kill 50% of the cells, 48 h, MTT; for SI HSC-2: average CC50 towards HGF, HPLF, HPC divided by CC50 against HSC-2
Experimental: as §1

[7] = Average over HGF, HPLF and HPC non-malignant cells; assay type: cell-based; settings: human, HPLF and HPC non-malignant cells (average of the three)
Experimental: as §1

[8] = Stability by 1H NMR in 9:1 deuterated dimethylsulfoxide and deuterium oxide; assay type: physicochemical; settings: 37 °C
[9] = Cytotoxicity against non-malignant HPLF cells, MTT method, 48 h; assay type: cell-based; settings: human, periodontal ligament fibroblasts (HPLF)
Experimental: as §1

[10] = Cytotoxicity against non-malignant HPC cells, MTT method, 48 h; assay type: cell-based; settings: human, pulp cells (HPC)
Experimental: as §1

[11] = tested on: HSC-4 cells; assay: Cytotoxicity against HSC-4 cells, MTT method, 48 h; assay type: cell-based, human; settings: for CC50: Homo sapiens, read-out: CC50 HSC-4; for SI HSC-4: average CC50 towards HGF, HPLF, HPC divided by CC50 against HSC-4
Experimental: as §1

[12] = tested on: CEM cells; assay: Effect on mitochondrial membrane potential, JC-1 dye, flow cytometry; assay type: cell-based, human; settings: CC50 and twice CC50 concentrations, 8 h
Experimental: The effect of 4b,c on the mitochondrial membrane potential of CEM cells was determined using a literature method. In brief, the cells were incubated with the compounds for 8 h. The neoplasms were then stained with the JC-1 dye and the results were obtained using flow cytometry.

[13] = tested on: Ca9-22 cells; assay: Cell cycle analysis and morphological changes in Ca9-22 cells; assay type: cell-based, human; settings: 24 h
Experimental: Treated and untreated Ca9-22 cells (approximately 10^6 cells) were harvested, fixed with 1% paraformaldehyde, treated with 0.2 mg/mL RNase A (preheated for 10 min at 100 °C to inactivate DNase), stained for 15 min with 0.01% propidium iodide in the presence of 0.01% NP-40 to prevent cell aggregation, filtered through Falcon® cell strainers ([…]) (Corning, NY, USA), subjected to cell sorting (SH800 Series; SONY Imaging Products and Solutions Inc., Kanagawa, Japan) and then analyzed with Cell Sorter Software version 2.1.2. (SONY Imaging Products and Solutions Inc., Kanagawa, Japan), as described previously.

[14] = tested on: HL-60 (TB), K-562, RPMI-8226 and SR cells; design: method as in PMID 24657568; settings: read-out: average IC50 against HL-60 (TB), K-562, RPMI-8226 and SR cells; cited from earlier work
[15] = Ca9-22, concentration required to kill 50% of the cells, 48 h, MTT
[16] = average of Ca9-22, HSC-2 and HSC-4
[17] = HSC-4, concentration required to kill 50% of the cells, 48 h, MTT

Row | Structure (SMILES) | CC50 [2, 15] | SI Ca9-22 [2] | CC50 [3, 16] | Average SI [3] | CC50 at 48 h [4] | IC50 [5] | CC50 [6] | SI HSC-2 [6] | CC50 at 48 h [7] | CC50 at 48 h [9] | CC50 at 48 h [10] | CC50 [11, 17] | SI HSC-4 [11] | effect on the mitochondrial membrane potential (MMP) [12] | also measured
1 | O=c1[nH]cc(F)c(=O)[nH]1 [5-fluorouracil] |  |  |  |  |  |  |  |  |  |  |  |  |  |  | IC50 [1]: 8.46 µM
2 | C[N+]1(CCC(=O)N2C/C(=C\c3ccccc3)C(=O)/C(=C/c3ccccc3)C2)CCC(=NO)CC1 (stereo not drawn) [Compound 4a, (3~{E},5~{E})-3,5-bis-benzylidine-1-[3-(4-hydroximino-1-piperidyl)propanoyl]piperidin-4-one methiodide] | 0.56 ± 0.01 µM | 30.4 | 0.86 µM | 23.8 | 9.65 ± 1.23 µM | 7.62 ± 1.44 µM | 1.45 ± 0.16 µM | 11.7 | 17 µM | 24.6 ± 1.1 µM | 16.8 ± 0.68 µM | 0.58 ± 0.04 µM | 29.3 |  | stability: 1H NMR spectra in dissolution and after 48 h incubation [8]: identical; melting point: 173 °C
3 | C[N+]1(CCC(=O)N2C/C(=C\c3ccc(F)cc3)C(=O)/C(=C/c3ccc(F)cc3)C2)CCC(=NO)CC1 (stereo not drawn) [Compound 4b, (3~{E},5~{E})-3,5-bis[(4-fluorophenyl)methylene]-1-[3-(4-hydroximino-1-piperidyl)propanoyl]piperidin-4-one methiodide] | 0.29 ± 0.23 µM | 28.7 | 0.31 µM | 29.4 | 4.5 ± 1.39 µM | 1.05 ± 0.38 µM | 0.42 ± 0.14 µM | 19.8 | 8.31 µM | 9.13 ± 0.48 µM | 11.3 ± 2.59 µM | 0.21 ± 0.01 µM | 39.6 | interfered with the MMP | 
4 | C[N+]1(CCC(=O)N2C/C(=C\c3ccc(Cl)cc3)C(=O)/C(=C/c3ccc(Cl)cc3)C2)CCC(=NO)CC1 (stereo not drawn) [Compound 4c, (3~{E},5~{E})-3,5-bis[(4-chlorophenyl)methylene]-1-[3-(4-hydroximino-1-piperidyl)propanoyl]piperidin-4-one methiodide] | 0.02 ± 0.01 µM | 202 | 0.06 µM |  | 1.65 ± 0.17 µM | 4.96 ± 0.28 µM | 0.06 ± 0.01 µM | 67.3 | 4.04 µM | 4.17 ± 1.44 µM | 6.3 ± 0.7 µM | 0.09 ± 0.03 µM | 44.9 | interfered with the MMP | 
5 | C[N+]1(CCC(=O)N2C/C(=C\c3ccc(Cl)c(Cl)c3)C(=O)/C(=C/c3ccc(Cl)c(Cl)c3)C2)CCC(=NO)CC1 (stereo not drawn) [Compound 4d, (3~{E},5~{E})-3,5-bis[(3,4-dichlorophenyl)methylene]-1-[3-(4-hydroximino-1-piperidyl)propanoyl]piperidin-4-one methiodide] | 0.01 µM | 236 | 0.02 µM |  | 1.15 ± 0.41 µM | 5.19 ± 0.66 µM | 0.03 µM | 78.7 | 2.36 µM | 2.12 ± 0.2 µM | 3.81 ± 0.02 µM | 0.03 µM | 78.7 |  | morphological change and cell cycle effect [13]: induced cell spreading due to G2/M cell accumulation without the induction of a subG1 population
6 | N[C@@H](Cc1ccc(N(CCCl)CCCl)cc1)C(=O)O [Melphalan, reference compound] |  |  |  |  | 157 ± 38.2 µM |  |  |  |  | 195 ± 4.04 µM | > 200 µM |  |  |  | CC50 ([2]; Ca9-22, 48 h): 48.5 ± 1.33 µM; CC50 [3]: 26.7 µM; IC50 [14]: 56.7 µM; CC50 ([11]; HSC-4, 48 h): 17.4 ± 0.88 µM
